Test results taken from patent US11141423B2, “Methods of screening compounds useful for treatment of a liver disease” (Icahn School of Medicine at Mount Sinai, priority 2010, dated 2021).

How the values were obtained:
[1] = target: T1, CB1R-AT1R heteromer (UniProt P30556+P47746); test: Ang II-mediated pERK in Neuro2A-AT1R cells; format: cell-based
T1 construct: Neuro2A cells expressing endogenous CB1R and recombinant AT1R; expressed in transfected cells; host or cells: Neuro2A stably expressing AT1R (CB1R endogenous)
T1 sequence (P47746 whole entry): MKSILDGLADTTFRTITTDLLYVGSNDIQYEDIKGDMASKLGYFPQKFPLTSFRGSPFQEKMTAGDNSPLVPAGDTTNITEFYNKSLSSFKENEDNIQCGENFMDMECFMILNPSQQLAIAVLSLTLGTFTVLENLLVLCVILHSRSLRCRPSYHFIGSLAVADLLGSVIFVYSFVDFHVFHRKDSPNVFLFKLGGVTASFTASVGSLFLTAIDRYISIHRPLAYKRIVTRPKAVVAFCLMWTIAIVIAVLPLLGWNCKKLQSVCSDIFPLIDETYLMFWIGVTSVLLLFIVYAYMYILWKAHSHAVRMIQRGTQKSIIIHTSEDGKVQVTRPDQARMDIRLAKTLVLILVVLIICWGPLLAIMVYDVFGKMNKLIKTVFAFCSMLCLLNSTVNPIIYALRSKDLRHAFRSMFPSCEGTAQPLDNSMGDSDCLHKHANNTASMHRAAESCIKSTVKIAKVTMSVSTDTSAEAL
T1 sequence (P30556 whole entry): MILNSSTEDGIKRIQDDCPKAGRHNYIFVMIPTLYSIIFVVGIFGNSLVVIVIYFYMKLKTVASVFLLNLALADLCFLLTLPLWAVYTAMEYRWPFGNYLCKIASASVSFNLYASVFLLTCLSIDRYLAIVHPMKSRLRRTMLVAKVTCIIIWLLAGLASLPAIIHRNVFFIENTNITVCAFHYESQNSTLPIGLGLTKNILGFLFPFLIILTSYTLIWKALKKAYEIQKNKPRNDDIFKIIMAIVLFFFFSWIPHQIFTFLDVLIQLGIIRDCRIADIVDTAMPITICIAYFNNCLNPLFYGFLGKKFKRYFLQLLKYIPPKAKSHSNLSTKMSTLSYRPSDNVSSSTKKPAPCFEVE
Method: (§1) Generation of HEK293-Transfected Cells and Neuro2A Cell Line Stably Expressing AT1R. These cell lines were generated using standard procedure of transfection and antibiotic selection of expressing cells. Screening of positive cells was carried out by immunostaining of the receptors to evaluate the homogeneity of expression in the clones.
RNAi-mediated CB1R and βarrestin-2 downregulation.
Neuro2A cells expressing endogenous CB1R and recombinant AT1R were pretreated with vehicle or THL (2 μM) for 3 hours in serum free media and stimulated with vehicle (CTL=control) or with the receptor ligand (angiotensin II) for 3 minutes. […] ERK phosphorylation was assessed by Western blot using antibodies to pERK and ERK (n=3-5). […] The cells were processed for infrared detection of pERK.

[2] = system: profibrogenic genes; test: Profibrogenic gene expression in liver of CCl4 or vehicle treated mice; format: in vivo
[3] = system: DAGL; conditions: cited from earlier work
[4] = target: T2, AT1R (Rattus norvegicus, UniProt P25095); test: Ang II-mediated pERK in control HSCs (cHSCs), Western blot; format: cell-based; conditions: cHSCs from control rats; Ang II stimulation; THL pretreatment 10 or 30 minutes
T2 construct: a profibrogenic receptor, AT1R, which was also expressed in cHSCs; endogenous in cells; host or cells: primary hepatic stellate cells from control-diet Sprague-Dawley rats (cHSCs)
T2 sequence (P25095 1-359): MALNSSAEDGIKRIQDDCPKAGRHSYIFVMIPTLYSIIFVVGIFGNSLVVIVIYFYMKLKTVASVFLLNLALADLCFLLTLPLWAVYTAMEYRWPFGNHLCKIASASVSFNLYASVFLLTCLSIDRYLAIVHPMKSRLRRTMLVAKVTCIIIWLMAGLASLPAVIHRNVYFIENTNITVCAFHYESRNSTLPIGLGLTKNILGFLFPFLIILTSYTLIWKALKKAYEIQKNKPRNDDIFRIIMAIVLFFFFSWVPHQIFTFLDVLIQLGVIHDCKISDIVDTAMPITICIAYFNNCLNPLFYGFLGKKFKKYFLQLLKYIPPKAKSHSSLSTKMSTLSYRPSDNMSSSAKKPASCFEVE
Source text: HSCs from ethanol treated rats were generated in the laboratory of Dr. Natalia Nieto: Rats (300 g female Sprague-Dawley, N=10/group) were fed the control or ethanol Lieber-DeCarli diets for 8 months (Lieber and DeCarli, 1989). Animals received humane care according to the criteria outlined in the Guide for Care and Use of Laboratory Animals. Details regarding pathology of the liver of the control and alcohol fed rats are described in (Cubero and Nieto, 2008; Urtasun et al., 2009).
Isolation of Hepatic Stellate Cells: These were isolated as described before. (Friedman, S. L. Hepatic stellate cells: protean, multifunctional, and enigmatic cells of the liver. Physiol Rev 88, 125-72 (2008); Teixeira-Clerc, F. et al. CB1 cannabinoid receptor antagonism: a new strategy for the treatment of liver fibrosis. Nat Med 12, 671-6 (2006)).

[5] = system: α-SMA, TGFβ, pro-collagen α III and pro-collagen α I; test: Ang II-mediated fibrogenic response in eHSC, real-time PCR; format: cell-based, rat; conditions: eHSCs, 4 hours, mRNA normalized to GAPDH
Method: (§2) Reverse Transcription and Real-Time PCR. Total RNA was isolated from 3×10^8 HSCs using the TRIzol method (Invitrogen, Carlsbad, Calif., USA). RNA (1.0 μg) was reverse-transcribed in 20 μl of buffer containing 50 μM oligo(dT)20, 25 mM MgCl2, 0.1 M dithiothreitol, 40 U/μl RNaseOUT, and 200 U/μl SuperScript III RT for 50 min at 50° C. The reaction was stopped by incubating the samples at 85° C. for 5 min, and 40 μl of nuclease-free water was added. Real-time PCR was performed by using the Brilliant SYBR Green QPCR Master Mix. The PCR template source was either 30 ng of first-strand cDNA or purified DNA standard. Primer sequences used to amplify the desired cDNA are detailed in Table 2. Amplification was performed with a spectrofluorometric thermal cycler (Stratagene). After an initial denaturation step at 95° C. for 10 min, amplification was performed using 40 cycles of denaturation (95° C. for 30 s), annealing (56° C. for 1 min), and extension (72° C. for 1 min). To standardize mRNA levels, we amplified GAPDH, a housekeeping gene, as an internal control. […] For analysis of gene expression, after reverse transcription, the number of copies of mRNA for the indicated transcripts were determined by real-time PCR. Data were normalized to GAPDH mRNA and are expressed as the mean±SD (n=3 in quadruplicate).

[6] = system: α-SMA, TGFβ, pro-collagen α III and pro-collagen α I; test: CGS21680-mediated fibrogenic response in eHSC, real-time PCR; format: cell-based, rat; conditions: eHSCs, 6 hours, mRNA normalized to GAPDH
Method: as §2, with “quadruplicate). […]” for “quadruplicate).”

[7] = target: T3, CB1R-AT1R heteromer (Rattus norvegicus, UniProt P20272+P25095); test: Ang II-mediated pERK in activated HSCs (eHSCs), Western blot; format: cell-based; conditions: eHSCs from ethanol treated rats; Ang II stimulation; THL pretreatment 10 or 30 minutes; pERK normalized to total ERK
T3 construct: endogenous in cells; host or cells: primary hepatic stellate cells from ethanol-fed Sprague-Dawley rats (eHSCs)
T3 sequence (P20272 whole entry, one chain of several): as the sequence (P47746 whole entry) above, with D95E counted along it
Source text: Animals received humane care according to the criteria outlined in the Guide for Care and Use of Laboratory Animals.
Isolation of Hepatic Stellate Cells: These were isolated as described before.

[8] = target: T4, CB1R-AT1R heteromer (Homo sapiens, UniProt P21554+P30556); test: Ang II-mediated pERK in HEK293 transfected with AT1R and CB1R; format: cell-based
T4 construct: expressed in transfected cells; host or cells: HEK293
T4 sequence (P21554 whole entry): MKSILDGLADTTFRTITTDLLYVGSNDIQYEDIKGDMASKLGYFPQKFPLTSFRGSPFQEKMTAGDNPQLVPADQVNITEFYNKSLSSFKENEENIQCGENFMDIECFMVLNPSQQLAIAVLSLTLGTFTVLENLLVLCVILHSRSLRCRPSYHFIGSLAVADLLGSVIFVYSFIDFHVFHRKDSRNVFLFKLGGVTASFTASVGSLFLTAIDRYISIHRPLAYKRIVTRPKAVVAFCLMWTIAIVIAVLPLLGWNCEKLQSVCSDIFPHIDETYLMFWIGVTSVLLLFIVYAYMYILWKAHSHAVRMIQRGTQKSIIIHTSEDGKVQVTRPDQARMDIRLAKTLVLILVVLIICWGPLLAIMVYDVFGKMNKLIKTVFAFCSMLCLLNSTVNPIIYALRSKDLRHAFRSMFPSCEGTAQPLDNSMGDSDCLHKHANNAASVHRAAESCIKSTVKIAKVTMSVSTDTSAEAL
T4 sequence (P30556 whole entry): as the sequence (P30556 whole entry) above
Method: FIG. 3A. […] ERK phosphorylation was assessed by Western blot using antibodies to pERK and ERK. Data represent mean±SEM (n=4).
as §1

## CCCCC/C=C\C/C=C\C/C=C\C/C=C\CCCC(=O)OC(CO)CO [2-AG, 2-arachidonoyl glycerol]
[1]
  Effect on THL-induced loss of Ang II-mediated signaling: reversed
[1]; THL pretreated Neuro2A-AT1, constant agonist concentration, increasing doses of 2-AG
  2-AG-mediated ERK1/2 phosphorylation: concentration-dependent

## CCNC(=O)[C@H]1O[C@@H](n2cnc3c(N)nc(NCCc4ccc(CCC(=O)O)cc4)nc32)[C@H](O)[C@@H]1O [CGS21680]
[2]; CCl4 treated mice, acute i.p. injection CGS21680 2 mg/kg, 6 hours
  Expression of profibrogenic genes in liver: further increased
[2]; non-fibrotic livers from vehicle-treated mice, CGS21680 2 mg/kg i.p.
  Expression of profibrogenic genes in liver: did not elevate

## CCCCCCC(C)(C)c1cc(O)c2c(c1)OC(C)(C)[C@@H]1CC=C(CO)C[C@@H]21 [Hu210]
[1]
  Effect on AT1R signaling of a non-signaling concentration of CB1R agonist: potentiates
  Effect on THL-induced loss of Ang II-mediated signaling: reversed

## O=C(NCCCCCCNC(=O)ON=C1CCCCC1)ON=C1CCCCC1 [RHC80267, 1,6-bis-(cyclohexyloximino-carbonylamino)-hexane]
[3]
  Inhibition of DAGL versus other lipases: inhibit DAGL at concentrations lower than those required to inhibit other lipases

## Cc1c(C(=O)NN2CCCCC2)nn(-c2ccc(Cl)cc2Cl)c1-c1ccc(Cl)cc1 [SR141716]
[4]
  Effect on Ang II-mediated ERK phosphorylation in cHSCs: not
[5]
  Effect on Ang II-mediated increase in expression of profibrogenic markers: prevents
[5]; listed as CB1R antagonist
  Effect on Ang II-mediated increase in expression of profibrogenic markers: completely blocked
[6]; listed as CB1R antagonist
  Effect on CGS-mediated increase in expression of profibrogenic markers: completely blocked
[6]; listed as SR
  Effect on CGS-mediated increase in expression of profibrogenic markers: prevents

## CCCCCCCCCCC[C@@H](C[C@@H]1OC(=O)[C@H]1CCCCCC)OC(=O)[C@H](CC(C)C)NC=O [THL, tetrahydrolipstatin]
[7]
  Effect on Ang II-mediated ERK phosphorylation in eHSCs: decreased
[4]
  Effect on Ang II-mediated ERK phosphorylation in cHSCs: not
[8]; HEK293 co-expressing CB1R and AT1R, 10 nM Ang II 3 minutes, SR 1 μM, THL 1 μM, 1 hour pre-treatment
  Effect on Ang II-mediated signaling (pERK): marked decrease
[1]; Neuro2A-AT1, THL 2 μM, 3 hours, serum free media, angiotensin II 3 minutes
  ERK1/2 phosphorylation upon agonist stimulation of the associated receptor: marked decrease
[1]; Neuro2A-AT1R
  Effect on Ang II-mediated signaling (blocking 2-AG production): loss
[3]
  Inhibition of DAGL versus other lipases: inhibit DAGL at concentrations lower than those required to inhibit other lipases

## Ang II: Angiotensin II, an agonist of AT1R (DRVYIHPF)
[8]
  Increase in pERK on Ang II stimulation: greater increase
[1]
  pERK levels at concentrations of Ang II superior to 10 nM: decrease
  pERK levels on Ang II stimulation: dose-dependent rapid and transient enhancement

## pertussis toxin
[1]; cells co-expressing CB1R and AT1R, PTX 15 nM, 16 hours, forskolin 1 μM, 30 min
  Effect on AT1R signaling (Ang II pERK), G protein coupling: markedly inhibited
